Assay results reported in the NIST ThermoML archive (doi:10.1021/je5004719).
± gives the expanded uncertainty stated by the source.

Conditions: 101.33 kPa, Liquid; for speed of sound: Sing-around technique in a fixed-path interferometer; for mass density: Vibrating tube method

| SMILES | speed of sound (298.15 K) [m/s] | mass density (298.15 K) [kg/m3] | speed of sound (303.15 K) [m/s] | mass density (303.15 K) [kg/m3] | speed of sound (308.15 K) [m/s] | mass density (308.15 K) [kg/m3] |
| --- | --- | --- | --- | --- | --- | --- |
| Cc1ccccc1C [1,2-dimethylbenzene] | 1346.2 ± 0.7 | 875.91 ± 1 | 1326.2 ± 0.7 | 871.7 ± 1 | 1306.1 ± 0.7 | 867.48 ± 1 |
| Cc1ccccc1 [toluene] | 1304.6 ± 0.8 | 862.18 ± 1 | 1283.2 ± 0.8 | 857.51 ± 1 | 1261.8 ± 0.8 | 852.82 ± 1 |
| Cc1ccccc1Cl [2-chlorotoluene] | 1298.7 ± 1 | 1077.3 ± 1 | 1280.7 ± 1 | 1072.5 ± 1 | 1262.7 ± 1 | 1067.6 ± 1 |
| C1CCOCC1 [tetrahydropyran] | 1269.8 ± 0.8 | 879.13 ± 1 | 1246.8 ± 0.8 | 873.99 ± 1 | 1224.4 ± 0.8 | 868.83 ± 1 |
| c1ccccc1 [benzene] | 1299.4 ± 0.8 | 873.54 ± 1 | 1276.1 ± 0.77 | 868.2 ± 1 | 1252.9 ± 0.76 | 862.84 ± 1 |
